US10905735B2 (priority 2016, dated 2021)
Where two headings read alike, the source gives them in different places. Bridge positions count the residues as written; N and C are the ends. Peptide text beside a SMILES is read from it.

What was measured:
[1] = system: production of the toxins of Staphylococcus aureus 04018 strain (MDBK cells readout); type: cell-based; details: for Cell survival (%) / inhibitory effect on the production of the toxins of Staphylococcus aureus (in words): MDBK cells; for MDBK cell OD (M ± SD): OD 595 nm, MTT; for inhibitory effect on the production of the toxins of Staphylococcus aureus (in words): peptide in normal saline (MRK as suspension)
Experimental: For the determination method for inhibitory level on the toxins of Staphylococcus aureus, please refer to literatures. (Yang G, et al. A novel peptide screened by phage display can mimic TRAP antigen epitope against Staphylococcus aureus infections. J Biol. Chem. 2005, 280: 27431-27435), details are as follows:
1) Staphylococcus aureus strain 04018 frozen in refrigerator is scribbed to a blood plate or BHI plate; cultured in an incubator for 16 hours until monoclonal colony is observed in the plate, and placed in a 4° C. refrigerator for standby use.
2) After 8 hours, the monoclonal colony in the plate is randomly selected, 25 mL test tubes of the BHI medium is inoculated with the monoclonal colony; and then the two test tubes are shook in a shaking table at a temperature of 37° C. at a speed of 200 rpm, the bacteria are collected after 16 hours, the bacteria solution in the two test tubes are mixed evenly for standby use.
3) The chemosynthetic peptide MRK and MRG and the positive control (the toxins of Staphylococcus aureus inhibitor protein TP) are dissolved in normal saline, diluted to different concentrations, and added to bacteria BHI medium. The final concentrations of small peptides are 0, 1.5, 5, 15, 50, 150 and 500 μg/mL respectively. The solvent control is the same amount of normal saline; the negative control is the BHI medium of Staphylococcus aureus; and a normal cell control is also provided.
4) The chemosynthetic peptides of different concentrations are co-incubated with Staphylococcus aureus 04018 and cultured for 6 hours, and then bacteria are collected. 700 μL bacterial suspensions are added to EP tubes, centrifuged at 8000 rpm for 5 min, supernatants are obtained, boiled at a temperature of 100° C. for 7 min, and centrifuged at a speed of 14000 rpm for 10 min. 10 μL supernatants are taken, added into a 96-microwell cell culture plate inoculated with 1×10<5>/mL MDBK cells. After continuous culture for 18-20 hours, 5 μL MTT solution (5 mg/mL) is added to each microwell, 100 μL 10% SDS+0.01M HCl solution is added to each microwell after 3 hours. After culture in the incubator at a temperature of 37° C. for 20 hours, detection at 595 nm and reading are carried out by an enzyme-linked immunometricmeter.

[2] = system: Staphylococcus aureus Newman strain; details: 5 mg/kg body weight, injected 30 minutes after infection; versus aseptic water control; one week
Experimental: 1) Preparation of Staphylococcus aureus Newman Solution
Newman monoclonal strain with hemolytic circles is selected, 3 mL BHI medium is inoculated with the strain, and the strain is shook overlight at a speed of 220 rpm and a temperature of 37° C.
1 mL overnight strain is centrifuged at a speed of 5000 rpm for 2 min, and the supernatant is removed.
20 mL aseptic PBS is added for resuspension at a speed of 5000 rpm for 5 min, and the supernatant is removed.
5 mL aseptic PBS resuspended bacteria is diluted to OD600=0.
2) Establishment of Model of Bacteremia and Determination of Polypeptide Activity in BALB/c Mice
BALB/c mice (female, 8 weeks) are subjected to intraperitoneal injection of anesthetic (1% pentobarbital) (200 μL for each mouse).
Newman solution (OD600=0.2, 100 μL for each mouse) is injected into retrobulbar venous plexus.
After 30 minutes of infection, 6 mice are injected with polypeptide at enterocoelia (0.5 mg/mL, 200 μL for each mouse) and 7 mice in control are injected with sterile water (200 μL for each mouse).
The times of the mouse in one week are recorded and used for drawing survival curves.

Compound | inhibitory effect on toxin production compared with TP protein (positive control) ([1]; 5 μg/mL small peptide) | Cell survival (%) ([1]; 0.005 mg/mL peptide) | MDBK cell OD (M ± SD) ([1]; 0.005 mg/mL peptide) | Cell survival (%) ([1]; 0.05 mg/mL peptide) | MDBK cell OD (M ± SD) ([1]; 0.05 mg/mL peptide) | Cell survival (%) ([1]; 0.15 mg/mL peptide) | MDBK cell OD (M ± SD) ([1]; 0.15 mg/mL peptide) | inhibitory effect on the production of the toxins of Staphylococcus aureus (in words) [1] | death / survival rate in bacteremia (in words) [2] | solubility [µg/mL]
CH3(CH2)10CO-Gly-Cyclo(Cys-Gln-His-D-Trp-Trp-His-Trp-Tyr-Cys)-Arg-Arg-Arg-NH2 [MRG] | greater than that of TP protein | 60 | 0.296 ± 0.001 | 92 | 0.454 ± 0.015 | 96 | 0.473 ± 0.004 | obvious protective effect on the proliferation inhibition of MDBK cells | survival rate is greatly improved | –
NC(=O)CC[C@@H]1NC(=O)[C@@H](N)CSSC[C@@H](C(=O)O)NC(=O)[C@H](Cc2ccc(O)cc2)NC(=O)[C@H](Cc2c[nH]c3ccccc23)NC(=O)[C@H](Cc2c[nH]cn2)NC(=O)[C@H](Cc2c[nH]c3ccccc23)NC(=O)[C@H](Cc2c[nH]c3ccccc23)NC(=O)[C@H](Cc2c[nH]cn2)NC1=O [MRK, CQHWWHWYC] (H-CQHWWHWYC-OH; disulfide 1-9) | – | 25 | 0.123 ± 0.011 | 20 | 0.098 ± 0.014 | 35 | 0.171 ± 0.001 | could not inhibit the production of the toxins | good inhibitory effect on Staphylococcus aureus infection in vivo | < 100
